Results as given in ChEMBL document CHEMBL1201862, “PubChem BioAssay data set” (2004).
Active and inactive are the calls of the source.

Assays:
[1] = biological target: Luciferin 4-monooxygenase (Photinus pyralis, UniProt P08659); assay: Counter Screen for Luciferase-based Assay Positives. [Related pubchem assays: 620, 618, 411 ]
HT-1080 = assay: cytotoxicity in HT1080 fibrosarcoma cells, cell-based, fluorescence readout (AID 620); format: functional; conditions: Homo sapiens
[2] = Luminescent dose response cell-based high throughput screening assay for inhibitors of the Janus kinase 2 mutant JAK2V617F. [Related pubchem assays: 1446 (Primary screen.), 1521 (Confirmation assay.), 1486 (Counter screen.)]; format: functional
[3] = biological target: T1, Neuropeptide Y receptor type 1 (Homo sapiens, UniProt P25929); assay: Fluorescence-based counterscreen for agonists of NPY-Y2: cell-based high-throughput dose response assay for agonists of NPY-Y1.; format: functional
T1 sequence (P25929 whole entry): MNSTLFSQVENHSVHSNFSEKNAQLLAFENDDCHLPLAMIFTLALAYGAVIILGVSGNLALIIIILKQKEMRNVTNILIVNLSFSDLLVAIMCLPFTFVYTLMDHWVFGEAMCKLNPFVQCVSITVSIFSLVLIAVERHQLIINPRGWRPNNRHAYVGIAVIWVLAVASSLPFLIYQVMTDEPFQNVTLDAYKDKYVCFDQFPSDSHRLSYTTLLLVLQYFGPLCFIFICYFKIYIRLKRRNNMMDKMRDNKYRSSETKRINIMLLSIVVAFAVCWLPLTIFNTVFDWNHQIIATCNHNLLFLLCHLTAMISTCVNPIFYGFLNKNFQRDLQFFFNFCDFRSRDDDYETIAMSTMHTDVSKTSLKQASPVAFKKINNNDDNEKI

Protein RecA = biological target: T2, Protein RecA (Mycobacterium tuberculosis, UniProt P9WHJ3); assay: Fluorescence Cell-Free Homogeneous Dose Retest to Identify Inhibitors of RecA-Intein Splicing Activity. [Related pubchem assays (depositor defined):AID2097, AID2223, AID489010, AID492950]; format: functional
T2 sequence (P9WHJ3 whole entry): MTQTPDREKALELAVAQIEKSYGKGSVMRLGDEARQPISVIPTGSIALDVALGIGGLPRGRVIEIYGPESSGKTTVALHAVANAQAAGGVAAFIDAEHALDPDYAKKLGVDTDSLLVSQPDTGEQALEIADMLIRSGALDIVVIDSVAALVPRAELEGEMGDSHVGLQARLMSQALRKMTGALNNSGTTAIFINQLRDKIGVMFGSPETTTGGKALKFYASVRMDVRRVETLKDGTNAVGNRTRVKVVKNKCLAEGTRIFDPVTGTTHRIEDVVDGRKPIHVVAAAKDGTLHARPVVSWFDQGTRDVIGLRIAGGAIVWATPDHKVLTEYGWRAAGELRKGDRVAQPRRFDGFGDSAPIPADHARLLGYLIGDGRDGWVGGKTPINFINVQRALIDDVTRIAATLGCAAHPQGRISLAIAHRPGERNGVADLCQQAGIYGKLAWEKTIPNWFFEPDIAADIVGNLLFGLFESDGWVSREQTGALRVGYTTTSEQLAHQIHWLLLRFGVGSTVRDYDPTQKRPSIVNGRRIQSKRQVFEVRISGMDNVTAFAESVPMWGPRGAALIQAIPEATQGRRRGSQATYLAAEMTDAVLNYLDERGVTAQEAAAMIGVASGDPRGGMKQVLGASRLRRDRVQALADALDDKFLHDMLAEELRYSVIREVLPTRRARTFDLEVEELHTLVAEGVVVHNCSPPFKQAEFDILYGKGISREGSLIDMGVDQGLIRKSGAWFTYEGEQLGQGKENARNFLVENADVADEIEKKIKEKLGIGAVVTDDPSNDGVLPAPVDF

HEK293 = assay: Fluorescence-based counterscreen for potentiators or agonists of NPY-Y2: cell-based high-throughput dose response assay to identify inhibitors of cyclic nucleotide gated ion channel (CNGC) activity. In this assay, the parental HEK293 cell line transfected with a cyclic-nucleotide gated ion channel (CNGC)-based cAMP sensor is used to measure inhibition of isoproterenol-induced CNGC activity by test compound.; format: functional; conditions: Homo sapiens
[4] = biological target: T3, Neuropeptide Y receptor type 2 (Homo sapiens, UniProt P49146); assay: Fluorescence-based cell-based high-throughput dose response assay for agonists of NPY-Y2. [Related pubchem assays: 1703 (Screening assay (CNGC inhibitors).), 1359 (Screening assay (NPY-Y2 potentiators or agonists).), 1304 (Screening assay (NPY-Y1 potentiators or agonists).), 1710 (Screening assay (NPY-Y2 agonists).), 1791 (Summary AID.)]; format: functional
T3 sequence (P49146 whole entry): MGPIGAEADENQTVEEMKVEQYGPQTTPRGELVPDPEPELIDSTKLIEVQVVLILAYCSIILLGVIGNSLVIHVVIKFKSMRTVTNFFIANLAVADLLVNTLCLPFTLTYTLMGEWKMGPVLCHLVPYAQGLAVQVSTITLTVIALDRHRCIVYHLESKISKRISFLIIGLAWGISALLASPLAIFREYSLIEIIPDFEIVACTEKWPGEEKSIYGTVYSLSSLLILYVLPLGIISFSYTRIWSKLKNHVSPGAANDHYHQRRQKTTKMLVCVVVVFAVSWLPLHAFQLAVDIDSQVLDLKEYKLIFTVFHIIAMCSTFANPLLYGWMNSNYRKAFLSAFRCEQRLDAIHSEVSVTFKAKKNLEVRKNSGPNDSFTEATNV

[5] = biological target: T4, Replicative DNA helicase DnaB (Mycobacterium tuberculosis, UniProt P9WMR3); assay: DnaB intein splicing inhibitors, dose response, biochemical, cell-free fluorescence (AID 449749); format: functional
T4 sequence (P9WMR3 whole entry): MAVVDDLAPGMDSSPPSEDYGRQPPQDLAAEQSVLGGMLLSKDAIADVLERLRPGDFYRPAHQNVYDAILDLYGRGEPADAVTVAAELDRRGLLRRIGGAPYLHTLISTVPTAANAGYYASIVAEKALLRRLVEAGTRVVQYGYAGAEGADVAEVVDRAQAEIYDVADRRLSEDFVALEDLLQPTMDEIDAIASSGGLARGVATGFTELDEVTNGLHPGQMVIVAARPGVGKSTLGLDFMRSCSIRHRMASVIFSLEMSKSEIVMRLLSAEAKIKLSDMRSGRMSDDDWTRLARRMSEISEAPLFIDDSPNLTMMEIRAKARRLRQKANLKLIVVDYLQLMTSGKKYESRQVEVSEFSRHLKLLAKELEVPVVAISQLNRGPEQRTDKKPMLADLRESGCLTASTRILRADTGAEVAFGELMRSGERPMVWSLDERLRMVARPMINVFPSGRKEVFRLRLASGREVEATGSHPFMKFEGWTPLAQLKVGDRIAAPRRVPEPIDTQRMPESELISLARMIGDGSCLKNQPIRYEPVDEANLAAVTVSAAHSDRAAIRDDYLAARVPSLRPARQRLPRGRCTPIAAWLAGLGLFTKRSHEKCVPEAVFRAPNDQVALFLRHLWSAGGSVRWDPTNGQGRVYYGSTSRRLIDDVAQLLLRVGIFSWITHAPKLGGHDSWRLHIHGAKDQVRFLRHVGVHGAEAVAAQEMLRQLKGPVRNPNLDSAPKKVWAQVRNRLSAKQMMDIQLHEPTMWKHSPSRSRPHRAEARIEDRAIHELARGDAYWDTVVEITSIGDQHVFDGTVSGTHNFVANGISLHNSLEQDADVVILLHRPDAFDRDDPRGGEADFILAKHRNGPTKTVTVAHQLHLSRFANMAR

[6] = biological target: T5, Polyadenylate-binding protein 1 (Homo sapiens, UniProt P11940); assay: PABP1 MLLE–PAM2 interaction inhibitors, dose response, miRNA deadenylation inhibitor project, biochemical, fluorescence polarization, Cy5-PAM2 peptide, secondary (AID 602260); format: functional; conditions: read-out: IC50_Mean
T5 sequence (P11940 whole entry): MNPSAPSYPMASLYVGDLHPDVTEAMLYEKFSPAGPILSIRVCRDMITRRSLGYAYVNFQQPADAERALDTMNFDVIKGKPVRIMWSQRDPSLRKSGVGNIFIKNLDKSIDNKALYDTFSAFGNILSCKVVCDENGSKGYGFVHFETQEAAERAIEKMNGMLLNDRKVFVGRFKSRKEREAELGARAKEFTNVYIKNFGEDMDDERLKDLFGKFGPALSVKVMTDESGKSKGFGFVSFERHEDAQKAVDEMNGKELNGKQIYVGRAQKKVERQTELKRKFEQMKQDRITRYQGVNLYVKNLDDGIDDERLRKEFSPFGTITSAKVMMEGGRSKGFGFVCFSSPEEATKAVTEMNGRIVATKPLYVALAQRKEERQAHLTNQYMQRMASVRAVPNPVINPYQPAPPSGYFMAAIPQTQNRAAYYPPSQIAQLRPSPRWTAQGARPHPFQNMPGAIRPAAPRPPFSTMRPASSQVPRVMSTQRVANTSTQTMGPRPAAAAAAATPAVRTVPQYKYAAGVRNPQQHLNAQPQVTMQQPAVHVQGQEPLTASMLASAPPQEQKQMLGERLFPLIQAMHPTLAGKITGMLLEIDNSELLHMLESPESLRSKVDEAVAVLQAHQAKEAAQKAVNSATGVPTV

[7] = biological target: T5, Polyadenylate-binding protein 1; assay: PABP1 MLLE–PAM2 binding inhibitor potency, dose response, biochemical, fluorescence polarization, FITC-PAM2 peptide (AID 602259); format: functional; conditions: read-out: IC50_Mean
[8] = A Cell Based Secondary Assay To Explore Cytotoxicity of Compounds that Sensitize Mycobacterium Tuberculosis to Beta-Lactam Antibiotics.; format: functional
[9] = biological target: T6, High affinity choline transporter 1 (Homo sapiens, UniProt Q9GZV3); assay: CHT inhibitors, dose response, cell-based, 10-point CRC, membrane potential dye (AID 588401); format: functional;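 note: membrane potential dye fluorescence of choline-evoked depolarization via CHT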
T6 sequence (Q9GZV3 whole entry): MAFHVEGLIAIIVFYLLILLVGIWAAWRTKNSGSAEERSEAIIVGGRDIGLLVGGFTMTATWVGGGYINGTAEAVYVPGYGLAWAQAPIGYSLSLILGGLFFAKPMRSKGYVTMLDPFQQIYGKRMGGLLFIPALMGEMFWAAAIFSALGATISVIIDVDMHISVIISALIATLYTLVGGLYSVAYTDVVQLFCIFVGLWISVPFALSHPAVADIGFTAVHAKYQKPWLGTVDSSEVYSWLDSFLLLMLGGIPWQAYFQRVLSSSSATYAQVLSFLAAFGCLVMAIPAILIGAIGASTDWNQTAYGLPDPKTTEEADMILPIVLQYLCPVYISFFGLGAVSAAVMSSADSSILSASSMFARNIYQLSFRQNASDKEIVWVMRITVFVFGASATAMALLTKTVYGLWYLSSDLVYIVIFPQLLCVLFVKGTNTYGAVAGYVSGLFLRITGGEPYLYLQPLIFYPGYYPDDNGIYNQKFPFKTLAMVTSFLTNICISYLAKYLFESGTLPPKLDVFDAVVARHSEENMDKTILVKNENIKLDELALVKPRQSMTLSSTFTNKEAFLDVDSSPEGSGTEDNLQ

[10] = biological target: T6, High affinity choline transporter 1; assay: CHT inhibitors, dose response, cell-based, 5-point CRC, membrane potential dye (AID 504840); format: functional
[11] = biological target: Potassium voltage-gated channel subfamily KQT member 2 (Rattus norvegicus, UniProt O88943, W236L); assay: KCNQ2 channel potentiators, dose response, mechanism study for KCNQ2 potentiator project, cell-based, automated electrophysiology (AID 2603); format: functional
Sequence of Potassium voltage-gated channel subfamily KQT member 2 (O88943 whole entry W236L): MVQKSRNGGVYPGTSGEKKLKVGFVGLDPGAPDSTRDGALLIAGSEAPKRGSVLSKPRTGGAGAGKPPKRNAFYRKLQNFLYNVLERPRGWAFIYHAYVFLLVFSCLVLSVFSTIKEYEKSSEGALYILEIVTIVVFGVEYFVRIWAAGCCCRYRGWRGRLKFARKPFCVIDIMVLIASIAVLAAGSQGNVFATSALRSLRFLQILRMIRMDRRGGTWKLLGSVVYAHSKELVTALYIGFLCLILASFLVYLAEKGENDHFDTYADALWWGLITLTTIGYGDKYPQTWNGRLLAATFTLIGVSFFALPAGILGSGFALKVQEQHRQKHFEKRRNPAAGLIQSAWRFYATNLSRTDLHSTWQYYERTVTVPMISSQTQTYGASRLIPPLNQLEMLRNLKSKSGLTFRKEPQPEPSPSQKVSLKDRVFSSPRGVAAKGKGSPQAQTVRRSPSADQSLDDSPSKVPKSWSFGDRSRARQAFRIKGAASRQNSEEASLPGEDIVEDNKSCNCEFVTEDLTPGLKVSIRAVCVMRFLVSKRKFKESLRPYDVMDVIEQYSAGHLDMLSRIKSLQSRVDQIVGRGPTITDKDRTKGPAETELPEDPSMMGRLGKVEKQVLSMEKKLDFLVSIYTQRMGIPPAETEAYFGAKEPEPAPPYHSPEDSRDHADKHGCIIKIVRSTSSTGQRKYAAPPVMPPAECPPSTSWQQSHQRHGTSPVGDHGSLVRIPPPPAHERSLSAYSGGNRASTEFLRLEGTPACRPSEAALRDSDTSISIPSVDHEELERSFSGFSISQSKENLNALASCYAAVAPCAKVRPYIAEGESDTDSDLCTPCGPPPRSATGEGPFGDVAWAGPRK

[12] = Shn3 3'UTR reporter inhibitors, dose response, cell-based, Clone20 osteoblasts, firefly luciferase, cherry-picked (AID 624132); format: functional;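 note: firefly luciferase luminescence from reporter carrying the Shn3 3'UTR in osteoblasts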
Vero = Vero cell cytotoxicity, cytotoxicity control for flavivirus capping enzyme inhibitors (AID 588742); format: functional; conditions: Chlorocebus sabaeus
[13] = control 3'UTR Renilla luciferase suppression, dose response, counter-screen for Shn3 inhibitor project, cell-based, Clone20-Shn3RL, cherry-picked (AID 624133); format: functional
[14] = Luminescence Cell-Based Dose Confirmation to Identify Activators of 5'UTR Stem-Loop Driven Alpha-Synuclein mRNA Translation in H4 Neuroglioblastoma Cells. [Related pubchem assays: 1829 (Project Summary), 1814 (Primary HTS)]; format: functional
[15] = Luminescence Cell-Based Dose Response HTS to Identify Activators of Luciferase Translation or Activity in H4 […] Cells. [Related pubchem assays: 1829 (Project Summary), 1814 (Primary HTS)]; format: functional
[16] = Luminescence Cell-Based Dose Response to Identify Activators of Luciferase Translation or Activity in H4-C Neuroglioblastoma Cells. [Related pubchem assays: 1829 (Project Summary), 1814 (Primary HTS)]; format: functional
[17] = Luminescence Cell-Based Dose Response to Identify Activators of 5'UTR Stem-Loop Driven Prion Protein mRNA Translation in H4-C Neuroglioblastoma Cells. [Related pubchem assays: 1829 (Project Summary), 1814 (Primary HTS)]; format: functional
H4 = assay: Luminescence Cell-Based Dose Response HTS to Identify Activators of 5'UTR Stem-Loop Driven Prion Protein mRNA Translation in H4 Neuroglioblastoma Cells. [Related pubchem assays: 1829 (Project Summary), 1814 (Primary HTS)]; format: functional; conditions: Homo sapiens
[18] = biological target: T7, Microphthalmia-associated transcription factor (Homo sapiens, UniProt O75030); assay: TRPM1 promoter luciferase signal decrease, dose response, MITF inhibitor project, cell-based, SK-MEL-5, cherry-picked, set 3 (AID 493073); format: functional
T7 sequence (O75030 whole entry): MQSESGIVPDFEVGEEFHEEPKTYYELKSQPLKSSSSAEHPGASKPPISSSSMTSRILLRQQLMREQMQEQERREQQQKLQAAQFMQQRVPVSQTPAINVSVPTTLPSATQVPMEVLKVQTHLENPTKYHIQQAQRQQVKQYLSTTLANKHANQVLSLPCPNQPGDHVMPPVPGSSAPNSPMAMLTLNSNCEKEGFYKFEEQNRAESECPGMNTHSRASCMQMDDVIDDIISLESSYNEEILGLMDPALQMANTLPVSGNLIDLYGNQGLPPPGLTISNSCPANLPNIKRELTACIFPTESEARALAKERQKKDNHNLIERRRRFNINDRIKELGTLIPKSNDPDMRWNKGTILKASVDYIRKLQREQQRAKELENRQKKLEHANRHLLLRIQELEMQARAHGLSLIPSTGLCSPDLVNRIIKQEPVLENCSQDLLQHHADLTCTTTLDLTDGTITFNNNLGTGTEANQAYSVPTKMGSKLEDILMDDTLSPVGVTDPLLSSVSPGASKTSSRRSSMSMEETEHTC

Sequence of Luciferin 4-monooxygenase (P08659 whole entry): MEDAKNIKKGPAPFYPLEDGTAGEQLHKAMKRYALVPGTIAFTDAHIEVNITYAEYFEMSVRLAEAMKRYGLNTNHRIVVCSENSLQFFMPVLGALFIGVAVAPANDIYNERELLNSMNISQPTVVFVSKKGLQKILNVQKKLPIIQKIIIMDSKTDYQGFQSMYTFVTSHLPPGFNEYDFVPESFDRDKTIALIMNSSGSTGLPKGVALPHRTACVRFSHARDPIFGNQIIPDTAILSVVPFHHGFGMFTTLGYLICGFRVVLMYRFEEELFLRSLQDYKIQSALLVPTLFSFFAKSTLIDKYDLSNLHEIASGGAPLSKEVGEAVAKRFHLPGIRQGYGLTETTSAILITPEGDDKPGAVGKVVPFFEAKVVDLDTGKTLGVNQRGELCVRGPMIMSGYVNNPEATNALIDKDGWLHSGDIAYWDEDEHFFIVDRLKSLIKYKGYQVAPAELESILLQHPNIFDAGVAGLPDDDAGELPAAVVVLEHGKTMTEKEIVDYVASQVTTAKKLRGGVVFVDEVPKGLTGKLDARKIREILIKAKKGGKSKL

## Cc1ccc(NC(=O)c2ccc3c(c2)OCCO3)cc1
[1]
  EC50: 0.81 µM (active)
HT-1080
  EC50: > 50 µM (not active)

## O=C(CCl)NC(=O)NC12CC3CC(CC(C3)C1)C2
[2]
  IC50: 870 nM (active)
[3]
  EC50: > 35.4 µM (not active)
Protein RecA
  EC50: 5.47 µM (active)
HEK293
  EC50: > 35.4 µM (not active)
[4]
  EC50: > 35.4 µM (not active)
[5]
  AC50: 12 µM (active)

## CCC(=O)N1CCN(c2ccc(NC(=S)NC(=O)c3ccc(OC)c([N+](=O)[O-])c3)cc2)CC1
[6]
  IC50: > 66 µM (inactive)
[7]
  IC50: > 66 µM (inactive)
[8]
  CC50: > 40 µM (active)

## Cc1ccc(CS(=O)(=O)c2ncc(Cl)c(C(=O)Nc3nnc(C)s3)n2)cc1
[9]
  IC50: 3.98 µM (active)
[10]
  IC50: 4.05 µM (active)
[11]
  EC50: 5.4 µM (active)
Protein RecA
  EC50: 16 µM (active)
[12]
  AC50: 639 nM (active)
Vero
  CC50: 17.4 µM (active)
[5]
  AC50: 14.2 µM (active)
[13]
  AC50: 6.75 µM (active)

## Cc1nn(-c2nc3ccccc3s2)c(N)c1-c1ccccc1
[14]
  EC50: 277 nM (active)
[15]
  EC50: < 100 nM (active)
[16]
  EC50: 1.66 µM (active)
[17]
  EC50: 346 nM (active)
H4
  EC50: > 120 µM (not active)

## COc1ccc(/C(O)=C\C=N\c2ccccn2)cc1
[18]
  AC50: 3.72 µM (active)
[1]
  EC50: 73.2 µM (active)
HT-1080
  EC50: > 50 µM (not active)

## N#C/C(=C(/O)COC(=O)CCc1ccc(S(=O)(=O)N2CCOCC2)cc1)c1nc2ccccc2[nH]1
[8]
  CC50: > 40 µM (active)
